Test results taken from patent US9023398B2, “Method for improving the aqueous solubility of poorly-soluble substances” (Kabushiki Kaisha Sangi, priority 2009, dated 2015).
Values belong to the molecule of their own block, whether it stands above or below them.

Tests used:
[1] = Dissolution test of poorly-soluble substances using distilled water; format: physicochemical
[2] = Dissolution test of poorly-soluble substances using 2nd fluid for disintegration test (pH 6.8) of the Japanese Pharmacopoeia; format: physicochemical
Method: From initiation of the test, the mixed solution was stirred with a stirrer having a length of 15 mm. The rotation number of the stirrer was 120 rpm, and all of the tests were conducted in a thermostat at 37±0.5° C. Two types of test solutions, namely, distilled water and 2nd fluid for disintegration test (pH 6.8) of the Japanese Pharmacopoeia were used. As such 2nd fluid for disintegration test of the Japanese Pharmacopoeia, a solution prepared by diluting the 10-fold concentration solution of Kanto Kagaku Co., Ltd. with distilled water was used.
A comparative test was carried out in the same manner as that described above with the exception that a poorly-soluble substance or the like was used in an amount equal to that of a substance with improved aqueous solubility, instead of the substance with improved aqueous solubility.
1 mL of the solution was sampled in an Eppendorf centrifuge tube, 1, 3, 10, 30, 60, 180 and 360 minutes after initiation of the test. The thus sampled solution was centrifuged at 12,000 rpm for 5 minutes. […] In the case of the comparative test, the poorly-soluble substance or the like, which had not been dissolved in the solution, was removed. An aliquot of this supernatant was immediately frozen. The frozen sample was freeze-dried, and it was then used as a sample in the measurement of the amount of the substance with improved aqueous solubility, which had been dissolved in the test solution. The dissolved poorly-soluble substance was measured mainly using a dual wavelength absorption photometer.

[3] = after dissolution test for 360 minutes, distilled water, 37±0.5° C.
[4] = after dissolution test for 360 minutes, Second disintegration test medium (pH 6.8), 37±0.5° C.
[5] = 2nd fluid for disintegration test, elution time 3 min
[6] = 2nd fluid for disintegration test, elution time 120 min
[7] = 2nd fluid for disintegration test, elution time 360 min
[8] = 2nd fluid for disintegration test, elution time 10 min
[9] = 2nd fluid for disintegration test, elution time 30 min

- Dissolved amount [1, 3]: 141.6 µg/mL
- Dissolved amount [2, 4]: 169.9 µg/mL
SMILES: COc1ccc2[nH]c([S+]([O-])Cc3ncc(C)c(OC)c3C)nc2c1 (stereo not shown) [4-1, Omeprazole]

- Dissolved amount ([1]; Pindolol, water, elution time 3 min): 53.1 µg/mL
- Dissolved amount ([1]; Pindolol, water, elution time 10 min): 71.1 µg/mL
- Dissolved amount ([1]; Pindolol, water, elution time 30 min): 77.8 µg/mL
- Dissolved amount ([1]; Pindolol, water, elution time 120 min): 93.5 µg/mL
- Dissolved amount ([1]; Pindolol, water, elution time 360 min): 93.6 µg/mL
- Dissolved amount ([2]; Pindolol, 2nd fluid for disintegration test, elution time 3 min): 1394.9 µg/mL
- Dissolved amount ([2]; Pindolol, 2nd fluid for disintegration test, elution time 10 min): 2837.9 µg/mL
- Dissolved amount ([2]; Pindolol, 2nd fluid for disintegration test, elution time 30 min): 3212.1 µg/mL
- Dissolved amount ([2]; Pindolol, 2nd fluid for disintegration test, elution time 120 min): 3624.7 µg/mL
SMILES: CC(C)NCC(O)COc1cccc2[nH]ccc12 (stereo not shown) [compound 42, Pindolol]

- Dissolved amount ([1]; Dissolution test using water, elution time 10 min): 8160.2 µg/mL
- Dissolved amount ([1]; Dissolution test using water, elution time 30 min): 7564.5 µg/mL
- Dissolved amount ([1]; Dissolution test using water, elution time 120 min): 7898.3 µg/mL
- Dissolved amount ([1]; Dissolution test using water, elution time 360 min): 7166.4 µg/mL
- Dissolved amount [2, 5]: 8676.7 µg/mL
- Dissolved amount [2, 6]: 9475.2 µg/mL
- Dissolved amount [2, 7]: 8810.0 µg/mL
SMILES: CN/C(=N/CCSCc1nc[nH]c1C)NC#N [compound 19, Cimetidine]

Further lines, the molecule ahead of its results:

SMILES: COc1cc(Cc2cnc(N)nc2N)cc(OC)c1OC [compound 13, Trimethoprim]
- Dissolved amount [1, 3]: 656.3 µg/mL
- Dissolved amount [2, 4]: 1321.9 µg/mL

SMILES: Nc1nc(N)c2nc(-c3ccccc3)c(N)nc2n1 [6-1, Triamterene]
- Dissolved amount [1, 3]: 21.3 µg/mL
- Dissolved amount [2, 4]: 18.4 µg/mL

SMILES: COc1ccccc1OCCNCC(O)COc1cccc2[nH]c3ccccc3c12 (stereo not shown) [compound 49, Carvedilol]
- Dissolved amount ([1]; Carvedilol, water, elution time 3 min): 5.2 µg/mL
- Dissolved amount ([1]; Carvedilol, water, elution time 10 min): 8.3 µg/mL
- Dissolved amount ([1]; Carvedilol, water, elution time 30 min): 10.0 µg/mL
- Dissolved amount ([1]; Carvedilol, water, elution time 120 min): 15.0 µg/mL
- Dissolved amount ([1]; Carvedilol, water, elution time 360 min): 16.0 µg/mL
- Dissolved amount ([2]; Carvedilol, 2nd fluid for disintegration test, elution time 3 min): 13.9 µg/mL
- Dissolved amount ([2]; Carvedilol, 2nd fluid for disintegration test, elution time 10 min): 26.3 µg/mL
- Dissolved amount ([2]; Carvedilol, 2nd fluid for disintegration test, elution time 30 min): 48.6 µg/mL
- Dissolved amount ([2]; Carvedilol, 2nd fluid for disintegration test, elution time 120 min): 44.1 µg/mL
- Dissolved amount ([2]; Carvedilol, 2nd fluid for disintegration test, elution time 360 min): 45.1 µg/mL

SMILES: O=C1NC(=O)C(c2ccccc2)(c2ccccc2)N1 [compound 21, Phenyloin]
- Dissolved amount ([1]; water, elution time 3 min): 26.5 µg/mL
- Dissolved amount ([1]; water, elution time 10 min): 23.3 µg/mL
- Dissolved amount ([1]; water, elution time 360 min): 24.1 µg/mL
- Dissolved amount [2, 5]: 17.4 µg/mL
- Dissolved amount [2, 8]: 42.1 µg/mL
- Dissolved amount [2, 9]: 50.7 µg/mL
- Dissolved amount [2, 6]: 27.2 µg/mL
- Dissolved amount [2, 7]: 32.5 µg/mL

SMILES: CC(C)(Sc1cc(C(C)(C)C)c(O)c(C(C)(C)C)c1)Sc1cc(C(C)(C)C)c(O)c(C(C)(C)C)c1 [Comparative Example 5-3, Probucol]
- Dissolved amount [1, 3]: 9.7 µg/mL
- Dissolved amount ([1]; water, elution time 1 min): 0.7 µg/mL
- Dissolved amount ([1]; water, elution time 3 min): 2.7 µg/mL
- Dissolved amount ([1]; water, elution time 10 min): 3.7 µg/mL
- Dissolved amount ([1]; water, elution time 30 min): 6.1 µg/mL
- Dissolved amount ([1]; water, elution time 60 min): 7.6 µg/mL
- Dissolved amount ([1]; water, elution time 180 min): 8.3 µg/mL
- Dissolved amount ([1]; water, elution time 360 min): 9.7 µg/mL
- Dissolved amount ([2]; 2nd fluid for disintegration test, elution time 1 min): 4.7 µg/mL
- Dissolved amount [2, 5]: 14.9 µg/mL
- Dissolved amount [2, 8]: 19.9 µg/mL
- Dissolved amount [2, 9]: 21.2 µg/mL
- Dissolved amount ([2]; 2nd fluid for disintegration test, elution time 60 min): 21.8 µg/mL
- Dissolved amount ([2]; 2nd fluid for disintegration test, elution time 180 min): 26.8 µg/mL
- Dissolved amount [2, 7]: 28.0 µg/mL
- Dissolved amount [2, 4]: 28.0 µg/mL

SMILES: O=[N+]([O-])O[C@H]1CO[C@H]2[C@@H]1OC[C@H]2O[N+](=O)[O-] [compound 30, Isosorbide Dinitrate]
- Dissolved amount ([1]; water, elution time 30 min): 3490.4 µg/mL
- Dissolved amount ([1]; water, elution time 120 min): 3516.8 µg/mL
- Dissolved amount [2, 8]: 7154.4 µg/mL
- Dissolved amount [2, 9]: 7134.1 µg/mL
- Dissolved amount [2, 7]: 7148.8 µg/mL
